Assay results taken from patent publication US5959109A, “Compounds and methods for increasing endogenous levels of corticotropin-releasing factor” (Neurocrine Biosciences, Inc., priority 1996, dated 1999).
pKi: −log10 of the molar value. Where two headings read alike, the source gives them in different places.

Target: T1, human recombinant CRF-BP (Homo sapiens, UniProt P24387)
T1 construct: made in house
T1 sequence (P24387 25-322): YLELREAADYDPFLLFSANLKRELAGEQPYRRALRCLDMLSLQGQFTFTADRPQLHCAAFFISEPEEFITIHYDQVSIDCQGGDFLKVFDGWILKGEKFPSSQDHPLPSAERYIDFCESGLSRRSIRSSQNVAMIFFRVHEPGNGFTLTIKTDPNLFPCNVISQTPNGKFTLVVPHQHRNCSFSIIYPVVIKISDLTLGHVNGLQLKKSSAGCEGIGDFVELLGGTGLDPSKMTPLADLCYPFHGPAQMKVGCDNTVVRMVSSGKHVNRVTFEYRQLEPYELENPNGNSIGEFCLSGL
Assay: LIRMA: displacement of 125I-h/rCRF from CRF-BP, Ki
Type: binding
Description: In LIRMA CRF-BP isolated from brain tissue, serum, or cells expressing a recombinant form, is added to wells of a 96-well plate, to small polypropylene microfuge tubes, or to glass borosilicate tubes in a binding buffer (0.02% NP-40 in 50 mM phosphate-buffered saline). ^125 I-h/rCRF (New England Nuclear) and the candidate ligand inhibitor at 10 μM are added and the reaction is incubated for 1 hour at room temperature. An appropriately diluted anti-CRF-BP antibody, such as a rabbit anti-hCRF-BP (Potter et al., Proc. Natl. Acad. Sci. USA 89:4192-4196, 1992) is added to each tube, and after further incubation, bound complexes are precipitated by the further addition of a goat anti-rabbit antibody. The precipitate containing ^125 I-CRF is collected by centrifugation and the amount of radioactivity in the pellet is determined by a gamma counter. If the candidate ligand inhibitor displaces CRF from CRF-BP, the pellets will contain less radioactivity in comparison to controls in which no candidate peptide is added. Maximum inhibition (i.e., 100%) of the binding of ^125 I-h/rCRF to the CRF-BP is defined by the amount of radioactivity left in the pellets after incubation with 10 μM of the CRF-BP peptide ligand h/rCRF (6-33). Thus, the binding potency of the candidate ligand inhibitor will be measured relative to the potency of the standard h/rCRF (6-33).
Thus, a ligand having a Ki of less than that of hCRF will bind more strongly to hCRF-BP than will hCRF itself, and a ligand having a higher value will have a relatively lower binding affinity.
The assay is performed in 600 μl polypropylene microfuge tubes or a 96-well plate. First, 50 μl of a 250 ng/ml of purified recombinant CRF-BP is added to 150 μl of PBS binding buffer (50 mM sodium phosphate, 0.15M NaCl, and 0.02% NP-40). Next, ^125 I-h/r CRF at a final concentration of 200 pM and 50 μl of a 10-100 μM concentration of the ligand inhibitor are added and incubated for 1 hour at room temperature. To the reaction, 50 μl of anti-CRF-BP antibody, 5144, diluted 1:1000 with assay buffer is added to each tube and allowed to bind for a further 1 hour at room temperature. The total volume in all tubes is adjusted to 300 μl with assay buffer. Bound complexes are precipitated by the addition of 200 μl of preprecipitated goat anti-rabbit (GAR) second antibody at 1:20 in 1% normal rabbit serum, 4% PEG, 50 mM sodium phosphate, 0.1% sodium azide, followed by incubation for 1 hour at room temperature. The antibody-bound ^125 I-CRF precipitate is then collected by centrifugation (3000×g) at 4° C. for 20 minutes in a Beckman GS-15R centrifuge. Using a Beckman Biomer 1000 robotic workstation, the tubes are aspirated and washed once with 600 μl of PBS plus 0.02% NP-40. Tubes containing the pellets are then transferred to 12×74 mm counting tubes and counted in a gamma counter.
Inhibitory binding affinity constant (Ki) values are determined using the method of Munson et al., Anal. Biochem. 107:220, 1980.

[1] = inhibitory binding affinity constant (Ki)
[2] = read-out: inhibitory binding affinity constant (Ki)

| SMILES | pKi [1] | pKi [2] |
| --- | --- | --- |
| CCn1c(O)c(C=Nc2nc3ccc(Cl)cc3s2)c(=O)n(CC)c1=S [Compound 74] | > 7.00 | – |
| Cc1cnc(N=Cc2c(O)n(Cc3ccccc3)c(=S)n(Cc3ccccc3)c2=O)s1 [Compound 118] | > 7.30 | – |
| CCn1c(O)c(C=Nc2nc3c(OC)cccc3s2)c(=O)n(CC)c1=S [Compound 73] | > 7.30 | – |
| O=c1oc2ccc(Cl)cc2c(O)c1C=NC(=S)Nc1ccccc1-c1ccccc1 [Compound 20] | – | > 7.30 |
| CCn1c(=O)c(C=Nc2nncs2)c(O)n(CCc2ccccc2)c1=S [Compound 110-1] | > 7.30 | – |
| CCCn1c(O)c(C=NC(=S)Nc2ccc(Cl)cc2)c(=O)n(CCC)c1=S [Compound 54] | > 7.00 | – |
| O=c1oc2ccc(Cl)cc2c(O)c1C=NC(=S)Nc1ccc(Cl)cc1 [Compound 1, 3-(p-chlorophenyl)thioureidomethylene-4-oxo-6-chloro-coumarin] | – | > 7.30 |
| O=c1c(C=Nc2nncs2)c(O)n(Cc2ccccc2)c(=S)n1Cc1ccccc1 [Compound 111] | > 7.30 | – |
| CCn1c(=O)c(C=Nc2nnc(C(F)(F)F)s2)c(O)n(CCc2ccccc2)c1=S [Compound 104-1] | > 7.00 | – |
| CCn1c(=O)c(C=Nc2nc3ccc(OC)cc3s2)c(O)n(CCc2ccccc2)c1=S [Compound 76-1] | > 7.00 | – |
| CCn1c(=O)c(C=Nc2nc3ccc(C)cc3s2)c(O)n(CCc2ccccc2)c1=S [Compound 75-1] | > 7.00 | – |
| COc1cccc2sc(N=Cc3c(O)c4cc(Cl)ccc4oc3=O)nc12 [Compound 40] | – | > 7.00 |
| CCn1c(=O)c(C=Nc2ncc(C)s2)c(O)n(CCc2ccccc2)c1=S [Compound 117-1] | > 7.00 | – |
| CCn1c(O)c(C=Nc2nc3ccc([N+](=O)[O-])cc3s2)c(=O)n(CC)c1=S [Compound 79] | > 7.00 | – |
| CCn1c(O)c(C=Nc2nc3cc([N+](=O)[O-])ccc3s2)c(=O)n(CC)c1=S [Compound 82] | > 7.30 | – |
| O=c1oc2ccc(Cl)cc2c(O)c1C=NC(=S)Nc1c(Cl)cc(Cl)cc1Cl [Compound 7] | – | > 7.30 |
| CCn1c(=O)c(C=Nc2nc3c(Cl)cccc3s2)c(O)n(CCc2ccccc2)c1=S [Compound 95-1] | > 7.00 | – |

| SMILES | pKi [1] | pKi [2] |
| --- | --- | --- |
| CCCCCCCCCCCCCCCCSc1nnc(N=Cc2c(O)n(Cc3ccccc3)c(=S)n(Cc3ccccc3)c2=O)s1 [Compound 121] | > 7.30 | – |
| CCn1c(O)c(C=Nc2nnc(C(F)(F)F)s2)c(=O)n(CC)c1=S [Compound 104] | > 7.00 | – |
| O=c1c(C=NC(=S)Nc2ccc(Cl)cc2)c(O)n(Cc2ccccc2)c(=S)n1Cc1ccccc1 [Compound 53] | > 7.00 | – |
| CCn1c(=O)c(C=Nc2nc(N(Cc3ccccc3)c3ccccc3)ns2)c(O)n(CCc2ccccc2)c1=S [Compound 131-1] | > 7.30 | – |
| O=c1oc2cc(Cl)ccc2c(O)c1C=Nc1nc2c(Cl)cccc2s1 [Compound 44] | – | > 7.30 |
| CCCn1c(O)c(C=Nc2nc(N(Cc3ccccc3)c3ccccc3)ns2)c(=O)n(CCC)c1=S [Compound 133] | > 7.30 | – |
| O=c1oc2ccc(Cl)cc2c(O)c1C=NC(=S)Nc1ccc(C(F)(F)F)cc1 [Compound 6] | – | > 7.30 |
| CCn1c(O)c(C=Nc2nc3cc(C)c(C)cc3[nH]2)c(=O)n(CC)c1=S [Compound 85] | > 7.30 | – |
| O=c1oc2ccc(Cl)cc2c(O)c1C=NC(=S)Nc1ccc(-c2ccccc2)cc1 [Compound 19] | – | > 7.30 |
| CCCn1c(O)c(C=Nc2nnc(C)s2)c(=O)n(CCC)c1=S [Compound 103] | > 7.00 | – |
| O=c1oc2ccc(Cl)cc2c(O)c1C=NC(=S)Nc1ccc(C2CCCCC2)cc1 [Compound 10] | – | > 7.30 |
| O=c1c(C=Nc2nnc(C(F)(F)F)s2)c(O)n(Cc2ccccc2)c(=S)n1Cc1ccccc1 [Compound 105] | > 7.00 | – |
| CCSc1nnc(N=Cc2c(O)n(Cc3ccccc3)c(=S)n(Cc3ccccc3)c2=O)s1 [Compound 115] | > 7.00 | – |
| O=c1c(C=Nc2ncc(Br)s2)c(O)n(Cc2ccccc2)c(=S)n1Cc1ccccc1 [Compound 140] | > 7.00 | – |
| CCn1c(O)c(C=Nc2nc3ccccc3[nH]2)c(=O)n(CC)c1=S [Compound 58] | > 7.30 | – |
| CCCn1c(O)c(C=Nc2nc3c(s2)CCC3)c(=O)n(CCC)c1=S [Compound 172] | > 7.30 | – |
